Experimental data reported in patent publication US6066628A, “Non-iron metalloporphyrins and methods of use” (Emory University, priority 1998, dated 2000).
Read-outs that look alike come from different tables or passages of the source.

Legend:
[1] = system: Mycobacterium bovis (BCG); assay type: cell-based
Y. pseudotuberculosis = assay type: cell-based
Y. enterocolitica [2] = test: microbe, parasite or virus in culture; assay type: cell-based
M tuber. H37Rv = test: Disc diffusion sensitivity test; assay type: cell-based, Mycobacterium tuberculosis; details: disc ~50 μg MP
E. coli [3] = test: Disc diffusion sensitivity test; assay type: cell-based, Escherichia coli
S. pyogenes A = test: Disc diffusion sensitivity test; assay type: cell-based, Streptococcus pyogenes; details: disc ~50 μg MP
M. smegmatis [4] = test: Disc diffusion sensitivity test; assay type: cell-based, Mycobacterium smegmatis; details: disc ~50 μg MP
N. meningitidis = test: Disc diffusion sensitivity test; assay type: cell-based; details: disc ~50 μg MP
H. pylori ATCC 43504 = test: Minimal inhibitory concentration; assay type: cell-based, Helicobacter pylori; details: H. pylori ATCC 43504 (Table 5)
S. marcescens = test: Disc diffusion sensitivity test; assay type: cell-based, Serratia marcescens
E. aerogenes = test: Disc diffusion sensitivity test; assay type: cell-based, Enterobacter aerogenes
M. smegmatis [5] = test: Minimal bactericidal concentration; assay type: cell-based, Mycobacterium smegmatis; details: reduces plating efficiency more than 99.9%; minimal exposure to light
E. faecalis = test: Disc diffusion sensitivity test; assay type: cell-based, Enterococcus faecalis; details: disc ~50 μg MP; further: key: -: resistant; N: not determined
E. coli [6] = assay type: cell-based, Escherichia coli
F. menigosepticum = test: Disc diffusion sensitivity test; assay type: cell-based, Flavobacterium meningosepticum
bacteria = assay type: cell-based
M. smegmatis [7] = assay type: cell-based, Mycobacterium smegmatis
M. bovis = assay type: cell-based, Mycobacterium bovis; details: disc ~50 μg MP
MDCK cells = test: Toxicity to mammalian cell monolayers; details: 0.5 mg in 1 mL DMEM; 24 hrs
[8] = system: Y. enterocolitica fur (H1852); assay type: cell-based; details: 1 μg/ml
M. tuberculosis = assay type: cell-based, Mycobacterium tuberculosis
Ps. aeruginosa = test: Disc diffusion sensitivity test; assay type: cell-based, Pseudomonas aeruginosa; details: disc ~50 μg MP; further: key: -: resistant; N: not determined
[9] = system: methicillin resistant S. aureus IR2419; assay type: cell-based, Staphylococcus aureus; details: 1 μg/ml, below the MIC value
K. oxytoca = test: Disc diffusion sensitivity test; assay type: cell-based, Klebsiella oxytoca
Y. enterocolitica [10] = test: Disc diffusion sensitivity test; assay type: cell-based; details: disc ~50 μg MP
CaCO-2 cells = test: Toxicity to mammalian cell monolayers; assay type: cell-based; details: 5 to 400 μg/ml; 24 to 48 hours
Method: To test for toxicity of MPs for mammalian cells, semiconfluent monolayers of four cell lines (MRC-5 primary human fibroblasts, Vero cells, MDCK cells and CaCO-2 cells) were incubated for 24 to 48 hours in the presence of 5, 25, 50, 250 and 400 μg/ml of Ga-PPIX dissolved in 0.02 M NaOH.

S. aureus = assay type: cell-based, Staphylococcus aureus
M. smegmatis LR222 = test: Growth kinetics with Ga-PPIX; assay type: cell-based, Mycobacterium smegmatis; details: 1 μg/ml
N. gonorrhoeae = test: Minimal inhibitory concentration; assay type: cell-based, Neisseria gonorrhoeae; details: N. gonorrhoeae MS111; 20 to 24 hours (Table 5)
L. monocytogenes = test: Minimal inhibitory concentration; assay type: cell-based; details: 20 to 24 hours (Table 5)

C=CC1=C(C)C2=Cc3c(C=C)c(C)c4[n]3[Ga][n]3c(c(C)c(CCC(=O)O)c3=CC3=NC(=C4)C(C)=C3CCC(=O)O)=CC1=N2 [Ga-PPIX, Gallium (III) protoporphyrin IX chloride]
MIC ([1]; M. bovis (BCG) (Table 4)): 0.4 µg/mL
MIC ([1]; M. bovis (BCG), two weeks (Table 5)): 0.4 µg/mL
spontaneous resistance (Gram-negative bacteria): gave rise to spontaneous resistant colonies
MIC (Y. pseudotuberculosis; Y. pseudotuberculosis YP66 (Table 4)): < 0.1 µg/mL
MIC (Y. pseudotuberculosis; Y. pseudotuberculosis YP66 (Table 6), in µg/mL): 0.2-0.4
Minimal inhibitory concentration (MIC) (Y. enterocolitica [2]): 0.4
antibacterial activity (Y. enterocolitica [2]): inhibitory
sensitivity of hemR mutant (Y. enterocolitica [2]): resistant to relatively high concentrations
sensitivity of hemT, hemU, hemV mutants (Y. enterocolitica [2]): fully sensitive
MIC (Y. enterocolitica [2]; in µg/mL): 0.4
diameter (mm) of the inhibition zone (M tuber. H37Rv): 20 mm
diameter (mm) of the inhibition zone (E. coli [3]; E. coli, disc ~50 μg MP): 24 mm
sensitive strains / strains tested (inhibition zones larger or equal 20 mm) (E. coli [3]; Escherichia coli, 50 μg disc): 16/18
diameter (mm) of the inhibition zone (S. pyogenes A): -
diameter (mm) of the inhibition zone (M. smegmatis [4]): 25 mm
diameter (mm) of the inhibition zone (N. meningitidis): 24 mm
MIC (H. pylori ATCC 43504): 0.2 µg/mL
diameter (mm) of the inhibition zone (S. marcescens; S. marcescens, disc ~50 μg MP): 23 mm
sensitive strains / strains tested (inhibition zones larger or equal 20 mm) (S. marcescens; Serratia marcescens, 50 μg disc): 2/3
diameter (mm) of the inhibition zone (E. aerogenes; E. aerogenes, disc ~50 μg MP): 22 mm
sensitive strains / strains tested (inhibition zones larger or equal 20 mm) (E. aerogenes; Enterobacter aerogenes, 50 μg disc): 1/1
Minimal bactericidal concentration (MBC) (M. smegmatis [5]): 10
diameter (mm) of the inhibition zone (E. faecalis): -
MIC (E. coli [6]; E. coli DH-5 alpha hemA (Table 6)): > 10 µg/mL
sensitivity (E. coli [6]; E. coli K-12 (hemPR+) wild type and hemA mutant, with delta-aminolevulinic acid): fully sensitive
TonB dependence of inhibition (E. coli [6]; E. coli TonB mutant overexpressing HemR): TonB activity is necessary
MIC (E. coli [6]; E. coli dh-5 alpha hemA(hemR+) (Table 6)): < 0.1 µg/mL
MIC Ga-PPIX (E. coli [6]; EC06 (MC1061, ΔccmABCDEFGH), NB): > 20 µg/mL
MIC Ga-PPIX (E. coli [6]; EC06 (MC1061, ΔccmABCDEFGH), NBD[50 μM]): > 20 µg/mL
MIC Ga-PPIX (E. coli [6]; GO103 (GR70N, ΔcydAB), NB): 10 µg/mL
MIC Ga-PPIX (E. coli [6]; GO103 (GR70N, ΔcydAB), NBD[50 μM]): 6.4 µg/mL
MIC Ga-PPIX (E. coli [6]; GP104 (GR70N, ΔcyoABCDE), NB): 10 µg/mL
MIC Ga-PPIX (E. coli [6]; GP104 (GR70N, ΔcyoABCDE), NBD[50 μM]): 10 µg/mL
MIC Ga-PPIX (E. coli [6]; GR70N w.t., NB): 10 µg/mL
MIC Ga-PPIX (E. coli [6]; GR70N w.t., NBD[50 μM]): 10 µg/mL
MIC Ga-PPIX (E. coli [6]; IR2885 (GO104 [phemR+]), NB): < 0.2 µg/mL
MIC Ga-PPIX (E. coli [6]; IR2885 (GO104 [phemR+]), NBD[50 μM]): < 0.02 µg/mL
MIC Ga-PPIX (E. coli [6]; IR2897 (GR70N [phemR+]), NB): > 10 µg/mL
MIC Ga-PPIX (E. coli [6]; IR2897 (GR70N [phemR+]), NBD[50 μM]): < 0.1 µg/mL
MIC Ga-PPIX (E. coli [6]; IR2898 (GO103 [phemR+]), NB): < 0.2 µg/mL
MIC Ga-PPIX (E. coli [6]; IR2898 (GO103 [phemR+]), NBD[50 μM]): < 0.02 µg/mL
MIC Ga-PPIX (E. coli [6]; IR2899 (MWC215 [phemR+]), NB): > 10 µg/mL
MIC Ga-PPIX (E. coli [6]; IR2899 (MWC215 [phemR+]), NBD[50 μM]): < 0.1 µg/mL
MIC Ga-PPIX (E. coli [6]; IR2976 (EC06 [phemR+]), NB): > 30 µg/mL
MIC Ga-PPIX (E. coli [6]; IR2976 (EC06 [phemR+]), NBD[50 μM]): 0.5 µg/mL
MIC Ga-PPIX (E. coli [6]; MWC215 (GR70N, ndh), NB): 10 µg/mL
MIC Ga-PPIX (E. coli [6]; MWC215 (GR70N, ndh), NBD[50 μM]): 10 µg/mL
higher MIC under iron-sufficient growth conditions (E. coli [6]; all other mutants): 50 fold
sensitivity without an iron chelator (E. coli [6]; cytochrome cd and cyo single mutants): still sensitive
sensitivity concentration of HemR-plasmid strains (E. coli [6]; slight iron restriction (0.05 mM dipyridyl)): less than 0.5 μg/ml
diameter (mm) of the inhibition zone (F. menigosepticum; F. meningosepticum, disc ~50 μg MP): 22 mm
sensitive strains / strains tested (inhibition zones larger or equal 20 mm) (F. menigosepticum; Flavobacterium meningosepticum, 50 μg disc): 1/1
antibacterial activity (bacteria): widest spectrum and the highest level of antibacterial activity
lower MIC in low iron media (M. smegmatis [7]; LB+0.2 mM Desferal): 2 fold
antibacterial activity (M. smegmatis [7]; M. smegmatis): inhibitory
MIC (M. smegmatis [7]; M. smegmatis LR222 (Table 4)): 0.5 µg/mL
Minimal inhibitory concentration (MIC) (M. smegmatis [7]; M. smegmatis LR222, LB + Tween 80 (Table 2)): 0.4 µg/mL
MIC (M. smegmatis [7]; M. smegmatis LR222, dark (Table 10)): 0.4 µg/mL
diameter (mm) of the inhibition zone (M. bovis): 35 mm
cytotoxic and/or morphological changes (MDCK cells): No visible cytotoxic and/or morphological changes were observed
growth in presence of Ga-PPIX [8]: completely prevented growth
sensitivity (preliminary experiments) (M. avium; M. avium): sensitive
MIC (M. avium; M. avium ATCC15769 (Table 5)): 1 µg/mL
MIC (M. tuberculosis; M. tuberculosis Rv (Table 5)): 4 µg/mL
sensitivity (preliminary experiments) (M. tuberculosis; pathogenic M. tuberculosis): sensitive
diameter (mm) of the inhibition zone (Ps. aeruginosa): -
growth in presence of Ga-PPIX [9]: inhibited growth of S. aureus in the first 20 hours of growth
diameter (mm) of the inhibition zone (K. oxytoca; K. oxytoca, disc ~50 μg MP): 21 mm
sensitive strains / strains tested (inhibition zones larger or equal 20 mm) (K. oxytoca; Klebsiella oxytoca, 50 μg disc): 1/1
diameter (mm) of the inhibition zone (Y. enterocolitica [10]): 28 mm
detachment or rounding of cells (CaCO-2 cells): No detachment or rounding of cells was noticed
MIC in Muller-Hinton broth versus NB broth (S. aureus; Muller-Hinton broth): did not differ significantly
lower MIC in low iron media (S. aureus; NBD with 0.1 mM dipyridyl): 2 fold
MIC (S. aureus; S. aureus 8325-4 (Table 4)): < 0.1 µg/mL
MIC (S. aureus; S. aureus 8325-4 (Table 6), in µg/mL): 1-2
MIC (S. aureus; S. aureus 8325-4, 20 to 24 hours (Table 5)): 1 to 2 µg/mL
MIC (S. aureus; S. aureus IR2419, dark (Table 10)): 1.6 µg/mL
Minimal inhibitory concentration (MIC) (S. aureus; methicillin-resistant S. aureus IR219, Nutrient broth (Table 2)): 1.6 µg/mL
growth in presence of Ga-PPIX (M. smegmatis LR222): completely prevented growth
MIC (N. gonorrhoeae): 0.1 µg/mL
MIC (L. monocytogenes): 0.2 µg/mL
